Measured values from patent US20090239839A1, “RECEPTOR ANTAGONIST” (TAKEDA PHARMACEUTICAL COMPANY LIMITED, priority 2003, published 2009).
Counter-ions that a name gives are not always drawn.

How the values were obtained:
human-type OT7T022 = target: T1, human-type OT7T022 (Homo sapiens, UniProt Q9GZQ6); test: Binding inhibiting activity using human-type OT7T022-expressing CHO cell; conditions: 125I-labeled Y-RFRP-3 100 pM, membrane fraction, room temperature 1.5 hours; read-out: IC50 value (binding inhibiting rate)
T1 construct: expressed in transfected cells; host or cells: CHO cells (membrane fraction)
Description: Assessment of Binding Inhibiting Activity of Test Compound Using Human-Type OT7T022-Expressing CHO Cell
Twenty μm of a peptide (Y-RFRP-3) (sequence: Tyr-Val-Pro-Asn-Leu-Pro-Gln-Arg-Phe-amide) (0.1 mM) in which a Tyr residue had been added to a N-terminus of hRFRP-3-8 (sequence: Val-Pro-Asn-Leu-Pro-Gln-Arg-Phe-amide) having binding inhibiting activity equivalent to that of endogenous human-type RFRP-3 (hRFRP-3-28) for human-type OT7T022-expressing CHO cell and 10 μl of distilled water were mixed, 20 μl of a lactoperoxidase solution (Sigma, prepared using 0.1 M HEPES-NaOH, pH 7.0 in 10 μg/mL), 10 μl of Iodine-125 (Amersham, IMS-30, 74 MBq), and 20 μl of 0.005% hydrogen peroxide (Wako Pure Chemical Industries, Ltd.) were successively mixed therein, the mixture was allowed to stand at room temperature for 10 minutes, 600 μl of 0.1% TFA-water was added, this was separated by reverse phase HPLC, a peak of the labeled form was collected, an equivalent amount of a buffer for a binding test (50 mM TrisHCl (pH 7.5), 0.1% BSA, 5 mM EDTA, 0.5 mM PMSF, 20 μg/mL leupeptin, 0.1 μg/mL pepstatin A, […]) was added, and this was immediately stored on ice. A part thereof was 1/100 diluted, radioactivity was measured with a γ-counter, and the remaining authentic product was distributed, which was stored at −30° C.
To a 96-well microplate were added 1 μg of a membrane fraction, a compound and Y-RFRP-3 labeled with ^125I, which had been diluted with a reaction buffer (50 mM Tris-HCl, 5 mM EDTA, 0.1% BSA, 0.5 mM PMSF, 20 μg/ml leupeptin, 0.1 μg/ml pepstatin A, 4 μg/ml E-64, 10 mM MgCl2, pH 7.5), to 100 pM to react them at room temperature for 1.5 hours. For measuring non-specific binding, non-labeled Y-RFRP-3 was further added to […]. Then, a membrane fraction was transferred to a unifilter GF/C (Perkin Elmer) by filtering the reaction mixture using a cell harvester (Perkin Elmer), and this was washed with a cooled 50 mM Tris buffer (pH 7.5) five times. The filter was dried, Microsinti (Packard) was added to the filter, and radioactivity was measured with Topcount (Packard).
A binding inhibiting rate (IC50 value) of a test compound is shown in [Table 1].

rat-type OT7T022 = target: T2, rat-type OT7T022 (Rattus norvegicus, UniProt Q9EP86); test: Binding inhibiting activity using rat-type OT7T022-expressing CHO cell membrane fraction; conditions: iodine-labeled Y-RFRP-3 100 pM, membrane fraction 0.75 μg/well
T2 construct: expressed in transfected cells; host or cells: CHO cells (membrane fraction)
Description: Assessment of Binding Inhibiting Activity of Test Compound Using Rat-Type OT7T022-Expressing CHO Cell
A flask in which a rat-type OT7T022-expressing CHO cell had been cultured was washed with 5 mM EDTA/PBS, cells were peeled with 5 mM EDTA/PBS, and cells were recovered by centrifugation, suspended in 25 mL of a buffer for preparing a membrane fraction (50 mM Tris-HCl, pH 7.5, 5 mM EDTA, 0.5 mM PMSF (manufactured by Wako Pure Chemical Industries, Ltd.), […] (manufactured by Peptide Laboratory), 0.1 μg/mL pepstatin A (manufactured by Peptide Laboratory), 4 μg/mL E-64 (manufactured by Peptide Laboratory)), and homogenized on an ice using Polytron (12,000 rpm, 15 seconds×3 times). This was centrifuged in a high speed cooling centrifuge at 4° C. and 1,000 g for 10 minutes, and the supernatant was recovered. 25 mL of a buffer for preparing a membrane fraction was added to precipitates, and the supernatant was recovered by the same procedure. These supernatants were combined, subjected to a cell strainer, dispensed into tubes for a supercentrifuge, and centrifuged at 4° C. and 100,000 g for 1 hour. The pellet was suspended in a small amount of a buffer for preparing a membrane fraction, this was suspended using a Teflon (registered trade mark) homogenizer, a protein amount was measured using a part, and the remaining was dispensed, and stored at −80° C.
Using an assay buffer (50 mM Tris-HCl, pH 7.5, 5 mM EDTA, 0.5 mM PMSF, 20 μg/mL leupeptin, 0.1 μg/mL pepstatin A, 4 μg/mL E-64, 0.1% bovine serum albumin, 10 mM MgCl2), a membrane fraction of a rat-type OT7T022-expressing CHO cell was diluted to the final concentration of 0.75 μg/well, and iodine-labeled Y-RFRP-3 was diluted to the final concentration of 100 pM. Regarding a sample compound, a 10^−2M or 10^−3M stock solution was diluted with an assay buffer so that the final concentration became 10^−5M, 10^−6M, 10^−7M, 10^−8M, 10^−9M, 10^−10M or 10^−11M. For non-specific binding, hRFRP-3-8 having the final concentration of 10^−5M was prepared. Using a polypropylene 96-well plate, a prepared sample solution, a non-specific binding solution, and 50 μl of an assay buffer for total binding were dispensed, 25 μl of an iodine-labeled form diluent was added, the mixture was stirred, 25 μl of a rat-type OT7T022-expressing CHO cell membrane fraction solution was dispensed, and this was stirred, and incubated at room temperature for 1.5 hours. This was transferred to a unifilter (Perkin Elmer) pre-wetted with a washing buffer (50 mM Tris-HCl, pH 7.5) using a harvester for a 96-well plate (Packard), and this was washed with a washing buffer six times, and sufficiently dried. 50 μl of Microscinti O (Packard) was dispensed, radioactivity was measured with Top Count (Packard), and data were analyzed in a triplicate manner. Binding inhibiting activity (IC50 value) of a test compound for rat-type OT7T022 is shown in [Table 3].

T1 sequence (Q9GZQ6 whole entry): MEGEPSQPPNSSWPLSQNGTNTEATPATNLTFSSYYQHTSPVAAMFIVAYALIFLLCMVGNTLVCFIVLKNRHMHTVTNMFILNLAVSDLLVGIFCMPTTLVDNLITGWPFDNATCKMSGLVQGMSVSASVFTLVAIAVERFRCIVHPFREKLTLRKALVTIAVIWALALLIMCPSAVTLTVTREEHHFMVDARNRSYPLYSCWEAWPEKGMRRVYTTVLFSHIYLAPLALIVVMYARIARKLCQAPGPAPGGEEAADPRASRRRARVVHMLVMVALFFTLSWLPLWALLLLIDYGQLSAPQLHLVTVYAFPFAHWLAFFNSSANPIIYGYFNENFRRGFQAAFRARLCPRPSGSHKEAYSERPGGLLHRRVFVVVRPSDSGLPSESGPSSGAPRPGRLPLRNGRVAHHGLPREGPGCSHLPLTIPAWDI
T2 sequence (Q9EP86 whole entry): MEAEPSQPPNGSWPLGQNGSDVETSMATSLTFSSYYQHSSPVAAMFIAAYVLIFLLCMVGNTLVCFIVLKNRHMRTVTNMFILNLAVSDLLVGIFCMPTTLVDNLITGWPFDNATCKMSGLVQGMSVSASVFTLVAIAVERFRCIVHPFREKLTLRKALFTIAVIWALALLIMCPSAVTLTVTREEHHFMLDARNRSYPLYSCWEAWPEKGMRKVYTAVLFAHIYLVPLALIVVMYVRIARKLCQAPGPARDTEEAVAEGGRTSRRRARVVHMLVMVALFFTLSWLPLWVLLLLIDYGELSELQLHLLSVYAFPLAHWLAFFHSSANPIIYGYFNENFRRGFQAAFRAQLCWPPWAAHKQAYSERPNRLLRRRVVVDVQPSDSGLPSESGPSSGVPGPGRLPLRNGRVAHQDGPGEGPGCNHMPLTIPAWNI

| SMILES | IC50 (human-type OT7T022) [nM] | IC50 (rat-type OT7T022) [nM] |
| --- | --- | --- |
| CCCCCNCCCOc1cccc([C@H]2O[C@H](CC(=O)NCc3ccccc3F)C(=O)N(CC(C)(C)C)c3ccc(Cl)cc32)c1OC (relative stereo) [Example 4, 2-{3,5-trans-7-Chloro-1-(2,2-dimethylpropyl)-5-[2-methoxy-3-(3-(pentylamino)propoxy)phenyl]-2-oxo-1,2,3,5-tetrahydro-4,1-benzoxazepin-3-yl}-N-(2-fluorobenzyl)acetamide hydrochloride] | < 1000 | < 1000 |
| COc1c(OCCCNCCCc2ccccc2Cl)cccc1[C@H]1O[C@H](CC(=O)NCc2ccccc2F)C(=O)N(CC(C)(C)C)c2ccc(Cl)cc21 (relative stereo) [Example 14, trans-2-{7-Chloro-5-[3-(3-{[3-(2-chlorophenyl)propyl]amino}propoxy)-2-methoxyphenyl]-1-(2,2-dimethylpropyl)-2-oxo-1,2,3,5-tetrahydro-4,1-benzoxazepin-3-yl}-N-(2-fluorobenzyl)acetamide hydrochloride] | < 1000 | < 1000 |
| COc1c(OCCCNC/C=C/c2ccccc2)cccc1[C@H]1O[C@H](CC(=O)NCc2ccccc2F)C(=O)N(CC(C)(C)C)c2ccc(Cl)cc21 (relative stereo) [Example 18, trans-2-[7-Chloro-1-(2,2-dimethylpropyl)-5-[2-methoxy-3-(3-{[(2E)-3-phenyl-2-propenyl]amino}propoxy)phenyl]-2-oxo-1,2,3,5-tetrahydro-4,1-benzoxazepin-3-yl]-N-(2-fluorobenzyl)acetamide hydrochloride] | < 1000 | < 1000 |

The next lines start with the values.

| IC50 (human-type OT7T022) [nM] | IC50 (rat-type OT7T022) [nM] | SMILES |
| --- | --- | --- |
| < 1000 | < 1000 | CCCNC(=O)C[C@H]1O[C@H](c2cccc(OCCCNCCCc3ccccc3)c2OC)c2cc(Cl)ccc2N(CC(C)(C)C)C1=O (relative stereo) [Example 46, trans-2-[7-Chloro-1-(2,2-dimethylpropyl)-5-(2-methoxy-3-{3-[(3-phenylpropyl)amino]propoxy}phenyl)-2-oxo-1,2,3,5-tetrahydro-4,1-benzoxazepin-3-yl]-N-propylacetamide hydrochloride] |
| < 1000 | < 1000 | COc1c(OCCCNCCCc2ccccc2)cccc1[C@H]1O[C@H](CC(=O)N2CCC(O)CC2)C(=O)N(CC(C)(C)C)c2ccc(Cl)cc21 (relative stereo) [Example 85, trans-7-Chloro-1-(2,2-dimethylpropyl)-3-[2-(4-hydroxypiperidin-1-yl)-2-oxoethyl]-5-(2-methoxy-3-{3-[(3-phenylpropyl)amino]propoxy}phenyl)-1,5-dihydro-4,1-benzoxazepine-2(3H)-one hydrochloride] |
| < 1000 | < 1000 | COc1c(OCCCNCCCc2ccccc2)cccc1[C@H]1O[C@H](CC(=O)N2CCNC(C(=O)O)C2)C(=O)N(CC(C)(C)C)c2ccc(Cl)cc21 (relative stereo) [Example 86, 4-{[3,5-trans-7-Chloro-1-(2,2-dimethylpropyl)-5-(2-methoxy-3-{3-[(3-phenylpropyl)amino]propoxy}phenyl)-2-oxo-1,2,3,5-tetrahydro-4,1-benzoxazepin-3-yl]acetyl}piperazine-2-carboxylic acid dihydrochloride] |
